Experimental data as given in patent publication US9458203B2, “Integrin-blocking polypeptides and uses thereof” (priority 2011, dated 2016).
“And” between values parts separate entries of the source, which are not always exact repeats. Equal entries are not always repeated. Where two headings read alike, the source gives them in different places. Ends that are not written are not given here.

How the values were obtained:
[1] = tested on: human colon cancer HT-29; assay type: in vivo, nude mice
Experimental: (§2) Taking a certain amount of vigorously growing tumor tissue, grinding the tumor tissue under sterile conditions and preparing cell suspension at the concentration of 1×10^7 cells/ml; then hypodermicaly inoculating 0.1 ml of the cell suspension into the right axillary region of nude mice. Keeping measuring the diameter of the transplanted tumor with a vernier caliper, and randomly dividing the mice into groups when the volume of the tumor reached 100-200 mm^3. […] Measuring the tumor diameter once every other day and recording the body weight of mice simultaneously. Intravenously injecting polypeptides to mice from test groups while administering equal quantity of physiological saline to mice from the negative control group. The total medication period was 14 days. Avastin was adopted to set up a positive control group; it was administered through the tail vein once every three days while all other drugs were administered through the tail vein once a day. Leaving mice for a one-week rest after 14 days' medication, then (21 days after medication) killing the mice, surgically dissecting the tumors and measuring the weight of tumors. The tumor volume (TV) was calculated in accordance with the following formula: TV=½×a×b^2

[2] = tested on: human thyroid cancer SW-579; assay type: in vivo, nude mice
Experimental: as §2

[3] = tested on: human cervical cancer HeLa; assay type: in vivo, nude mice
Experimental: as §2

[4] = tested on: human prostate cancer DU-145; assay type: in vivo, nude mice
Experimental: as §2

[5] = tested on: human ovarian cancer SK-OV-3; assay type: in vivo, nude mice
Experimental: as §2

[6] = tested on: human renal cancer A498; assay type: in vivo, nude mice
Experimental: as §2

[7] = tested on: human breast cancer MDA-MB-231; conditions: mouse, in vivo
Experimental: (§3) Taking a certain amount of vigorously growing tumor tissue, grinding the tumor tissue under sterile conditions and preparing cell suspension at the concentration of 1×10^7 cells/ml; then hypodermicaly inoculating 0.1 ml of the cell suspension into the right axillary region of nude mice. Keeping measuring the diameter of the transplanted tumor with a vernier caliper, and randomly dividing the mice into groups when the volume of the tumor reached 100-200 mm^3. Observing the dynamic effect of integrin-blocking polypeptides on inhibiting the growth of the tumor by means of documenting the change of tumor diameters. Measuring the tumor diameter once every other day and recording the body weight of mice simultaneously. Intravenously injecting polypeptides to mice from test groups while administering equal quantity of physiological saline to mice from the negative control group. The total medication period was 14 days. Avastin was adopted to set up a positive control group; it was administered through the tail vein once every three days while all other drugs were administered through the tail vein once a day. Leaving mice for a one-week rest after 14 days' medication, then (21 days after medication) killing the mice, surgically dissecting the tumors and measuring the weight of tumors. The tumor volume (TV) was calculated in accordance with the following formula: TV=½×a×b^2
(§4) wherein a, b refer to the length and width of the tumor respectively.
(§5) The relative tumor volume (RTV) can be calculated in accordance with the results of measurement, using the formula: RTV=Vt/V0, wherein V0 refers to the initial tumor volume measured on the date starting medication (namely d0) while Vt the tumor volume obtained through every measurement. The anti-tumor activity was evaluated by relative proliferation rate T/C (%), which was calculated in accordance with the following formula:
(§6) wherein TRTV refers to the RTV of experimental groups; CRTV refers to the RTV of the negative control group.

[8] = tested on: human gallbladder cancer GBC-SD; conditions: mouse, in vivo
Experimental: as §3
(§7) Avastin used in the positive control group was administered once every 2 days through tail vein injection, while drugs of all other groups were administered on daily basis through tail vein injection.

[9] = tested on: human esophageal cancer Ec109; assay type: in vivo, nude mice
From the text: (§1) The total medication period was 14 days.

[10] = tested on: human laryngeal cancer Hep-2; assay: heterotransplanted human laryngeal cancer Hep-2 in nude mice; assay type: in vivo
From the text: as §1

[11] = tested on: human pancreatic cancer SW-1990; assay: heterotransplanted human pancreatic cancer SW-1990 in nude mice; assay type: in vivo
From the text: as §1

[12] = tested on: human bladder cancer HT1376; assay: heterotransplanted human bladder cancer HT1376 in nude mice; assay type: in vivo
From the text: as §1

[13] = tested on: human breast cancer MDA-MB-231; assay: heterotransplanted human breast cancer MDA-MB-231 in nude mice; conditions: 10 mg/kg/time, tail vein once every three days
Experimental: as §3, §4, §5, §6

[14] = tested on: human gallbladder cancer GBC-SD; assay: heterotransplanted human gallbladder cancer GBC-SD in nude mice
Experimental: as §3, §7

[15] = tested on: melanoma B16F10; assay: transplanted melanoma B16F10 in C57BL/6 black mice
Experimental: Hypodermically injecting polypeptides and other drugs into the left axillary region of mice from the experimental groups respectively while administering only equal quantity of physiological saline to the mice from the negative control group. The total medication period was 14 days, during which cyclophosphamide was administered once every other day, taxol once every three days, low-dose polypeptide twice a day and all other drugs once a day.

[16] = tested on: human brain tumor SF763; conditions: mouse, in vivo
Experimental: as §3
(§8) Taxol used in the positive control group was administered once every 3 days through tail vein injection, while drugs of all other groups were administered on daily basis through tail vein injection.

[17] = tested on: human lung cancer H460; conditions: mouse, in vivo
Experimental: as §3, §8

[18] = tested on: human liver cancer SMMC-7721; conditions: mouse, in vivo
Experimental: as §3, §8

[19] = tested on: human testicular cancer 5637; assay type: in vivo, nude mice; conditions: for toxic and side effects, in words: mouse, in vivo
From the text: as §1

[20] = assay type: in vivo, nude mice; conditions: mouse, in vivo
From the text: as §1

[21] = tested on: sarcoma HT-1080; assay type: in vivo, nude mice; conditions: for body weight of animals, in words / toxic and side effects, in words / final weight: mouse, in vivo
From the text: as §1

[22] = tested on: human rectal cancer Colo 320; conditions: mouse, in vivo
Experimental: as §3, §8

[23] = tested on: human endometrial cancer HHUA; conditions: mouse, in vivo
Experimental: as §3, §8

[24] = tested on: human gastric cancer MGC-803; conditions: mouse, in vivo
From the text: Keeping measuring the diameter of the transplanted tumor with a vernier caliper, and randomly dividing the mice into groups when the volume of the tumor reached 100-200 mm^3. Observing the dynamic effect of integrin-blocking polypeptides on inhibiting the growth of the tumor by means of documenting the change of tumor diameters. Measuring the tumor diameter once every other day and recording the body weight of mice simultaneously. Intravenously injecting polypeptides to mice from test groups while administering equal quantity of physiological saline to mice from the negative control group. The total medication period was 14 days. Avastin was adopted to set up a positive control group; it was administered through the tail vein once every three days while all other drugs were administered through the tail vein once a day. Leaving mice for a one-week rest after 14 days' medication, then (21 days after medication) killing the mice, surgically dissecting the tumors and measuring the weight of tumors. The tumor volume (TV) was calculated in accordance with the following formula: TV=½×a×b^2

[25] = 10 mg/kg/time, once every 3 days, tail vein injection
[26] = positive control, tail vein once every 3 days
[27] = 10 mg/kg/time, tail vein once every 3 days
[28] = 5 mg/kg/time (as printed in Table 29), once every 3 days, tail vein injection
[29] = cisplatin 10 mg/kg/time, once every 3 days, tail vein injection
[30] = avastin 10 mg/kg/time, once every 3 days, tail vein injection
[31] = 10 mg/kg/time, once every 2 days, tail vein injection
[32] = 15 mg/kg/time once every other day, hypodermic, 14 days
[33] = 5-FU 10 mg/kg/time, once every 3 days, tail vein injection

## N.N.[Cl][Pt][Cl] [cisplatin, reference compound]
[1]; [25]
  tumor inhibition rate: 79.17%
  tumor weight: 0.30 ± 0.05 g
[1]; mouse, in vivo
  body weight of animals, in words: greatly reduced the body weight
[1]; [26]
  inhibition rate on tumor: 79.17%
[2]; [25]
  tumor inhibition rate: 74.09%
  tumor weight: 0.34 ± 0.07 g
[2]; mouse, in vivo
  body weight of animals, in words: greatly reduced the body weight
[2]; [26]
  inhibition rate on tumor: 74.09%
[3]; [27]
  tumor inhibition rate: 73.13%
  tumor weight: 0.38 ± 0.10 g
[3]; mouse, in vivo
  body weight of animals, in words: greatly reduced the body weight
[4]; [28]
  tumor inhibition rate: 73.84%
  tumor weight: 0.37 ± 0.10 g
[4]; [25]
  tumor inhibition rate: 73.84%
  tumor weight: 0.37 ± 0.10 g
[4]; [27]
  tumor inhibition rate: 73.84%
  tumor weight: 0.37 ± 0.10 g
[4]; mouse, in vivo
  body weight of animals, in words: greatly reduced the body weight
[5]; [29]
  tumor inhibition rate: 78.36%
  tumor weight: 0.29 ± 0.06 g
[5]; mouse, in vivo
  body weight of animals, in words: greatly reduced the body weight
[5]; [26]
  inhibition rate on tumor: 78.36%
[6]; [25]
  tumor inhibition rate: 79.83%
  tumor weight: 0.25 ± 0.06 g
[6]; mouse, in vivo
  body weight of animals, in words: greatly reduced the body weight
[6]; [26]
  inhibition rate on tumor: 79.83%

## avastin: Avastin was adopted to set up a positive control group [reference compound]
[7]
  body weight of animals, in words: no obvious change
[8]
  body weight of animals, in words: no significant change
[9]; [25]
  tumor inhibition rate: 69.00%
  tumor weight: 0.47 ± 0.10 g
[9]; mouse, in vivo
  body weight of animals, in words: no significant change
[9]; [26]
  inhibition rate on tumor: 69.00%
[10]; [30]
  tumor inhibition rate: 76.79%
  tumor weight: 0.26 ± 0.06 g
[10]; mouse, in vivo
  body weight of animals, in words: no significant change
[10]; [26]
  inhibition rate on tumor: 76.79%
[11]; [25]
  tumor inhibition rate: 79.07%
  tumor weight: 0.27 ± 0.07 g
[11]; mouse, in vivo
  body weight of animals, in words: no significant change
[11]; [26]
  inhibition rate on tumor: 79.07%
[12]; [25]
  tumor inhibition rate: 79.60%
  tumor weight: 0.24 ± 0.06 g
[12]; mouse, in vivo
  body weight of animals, in words: no significant change
[12]; [26]
  inhibition rate on tumor: 79.60%
[13]
  tumor weight: 0.26 ± 0.08 g
[14]; [31]
  tumor inhibition rate: 78.85%
  tumor weight: 0.25 ± 0.06 g
[14]; positive control, tail vein once every 2 days
  inhibition rate on tumor: 78.85%

## O=P1(N(CCCl)CCCl)NCCCO1 (stereo not shown) [cyclophosphamide]
[15]; [32]
  final weight: 17.3 ± 1.5 g
  tumor inhibition rate: 64.95%
  tumor weight: 1.40 ± 0.06 g

## FQPVLHLVALNSPLSGGMRGIRGADFQCFQQARAVGLAGTFRAGGGGRGD [polypeptide III]
[16]
  body weight of animals, in words: no significant change in body weight
  toxic and side effects, in words: no obvious toxic and side effects
[16]; 0.1875 mg/kg
  final weight: 23.31 ± 0.57 g
[16]; 0.375 mg/kg
  final weight: 23.37 ± 0.56 g
[16]; 0.75 mg/kg
  final weight: 23.09 ± 0.53 g
[7]
  body weight of animals, in words: no significant change in body weight
  toxic and side effects, in words: no obvious toxic and side effects
[17]
  body weight of animals, in words: no significant change in body weight
  toxic and side effects, in words: no obvious toxic and side effects
[8]
  body weight of animals, in words: no significant change in body weight
  toxic and side effects, in words: no obvious toxic and side effects
[18]
  body weight of animals, in words: no significant change in body weight
  toxic and side effects, in words: no obvious toxic and side effects
[19]
  toxic and side effects, in words: no obvious toxic and side effects
[20]
  body weight of animals, in words: no significant change in body weight
[9]; mouse, in vivo
  body weight of animals, in words: no significant change in body weight
  toxic and side effects, in words: no obvious toxic and side effects
[21]
  body weight of animals, in words: no significant change in body weight
  toxic and side effects, in words: no obvious toxic and side effects
[21]; 0.1875 mg/kg
  final weight: 22.92 ± 0.57 g
[21]; 0.375 mg/kg
  final weight: 23.18 ± 0.57 g
[21]; 0.75 mg/kg
  final weight: 23.07 ± 0.56 g
[10]; mouse, in vivo
  body weight of animals, in words: no significant change in body weight
  toxic and side effects, in words: no obvious toxic and side effects
[10]; mouse, in vivo, 0.1875 mg/kg
  final weight: 22.94 ± 0.46 g
[10]; mouse, in vivo, 0.375 mg/kg
  final weight: 22.96 ± 0.57 g
[10]; mouse, in vivo, 0.75 mg/kg
  final weight: 23.18 ± 0.51 g
[1]; mouse, in vivo
  body weight of animals, in words: no significant change in body weight
  toxic and side effects, in words: no obvious toxic and side effects
[22]
  body weight of animals, in words: no significant change in body weight
  toxic and side effects, in words: no obvious toxic and side effects
[22]; 0.1875 mg/kg
  final weight: 22.81 ± 0.60 g
[22]; 0.375 mg/kg
  final weight: 22.93 ± 0.56 g
[22]; 0.75 mg/kg
  final weight: 23.14 ± 0.48 g
[11]; mouse, in vivo
  body weight of animals, in words: no significant change in body weight
  toxic and side effects, in words: no obvious toxic and side effects
[2]; mouse, in vivo
  body weight of animals, in words: no significant change in body weight
  toxic and side effects, in words: no obvious toxic and side effects
[3]; mouse, in vivo
  body weight of animals, in words: no significant change in body weight
  toxic and side effects, in words: no obvious toxic and side effects
[4]; mouse, in vivo
  body weight of animals, in words: no significant change in body weight
  toxic and side effects, in words: no obvious toxic and side effects
[5]; mouse, in vivo
  body weight of animals, in words: no significant change in body weight
  toxic and side effects, in words: no obvious toxic and side effects
[5]; mouse, in vivo, 0.1875 mg/kg
  final weight: 22.83 ± 0.50 g
[5]; mouse, in vivo, 0.375 mg/kg
  final weight: 22.92 ± 0.70 g
[5]; mouse, in vivo, 0.75 mg/kg
  final weight: 22.95 ± 0.64 g
[12]; mouse, in vivo
  body weight of animals, in words: no significant change in body weight
  toxic and side effects, in words: no obvious toxic and side effects
[23]
  body weight of animals, in words: no significant change in body weight
  toxic and side effects, in words: no obvious toxic and side effects
[24]
  body weight of animals, in words: no significant change in body weight
  toxic and side effects, in words: no obvious toxic and side effects
[6]; mouse, in vivo
  body weight of animals, in words: no significant change in body weight
  toxic and side effects, in words: no obvious toxic and side effects
[15]; mouse, in vivo
  body weight of animals, in words: no severe weight change
  toxic and side effects, in words: no severe weight change or obvious toxic and side effects

## O=c1[nH]cc(F)c(=O)[nH]1 [5-FU, 5-fluorouracil, reference compound]
[19]; [25]
  tumor inhibition rate: 77.80%
  tumor weight: 0.28 ± 0.06 g
[19]
  toxic and side effects, in words: more apparent toxic and side effects
[19]; tail vein once every 3 days
  inhibition rate on tumor: 77.80% and 73.84%
[20]
  body weight of animals, in words: greatly reduced the body weight
[21]; [33]
  tumor inhibition rate: 78.10%
  tumor weight: 0.30 ± 0.07 g
[21]
  body weight of animals, in words: greatly reduced the body weight
  toxic and side effects, in words: more apparent toxic and side effects
[21]; [26]
  inhibition rate on tumor: 78.10%
